# Values of other authors, collected in US20250375404A1, “AN ORODISPERSIBLE PHARMACEUTICAL COMPOSITION OF BACLOFEN AND ITS PROCESS OF PREPARATION” (NOVUMGEN LIMITED, priority 2022, published 2025).
# Settings: in vivo
structure (smiles),measurement,value
NCC(CC(=O)O)c1ccc(Cl)cc1 (stereo not shown) [Baclofen],Absorption from the gastro-intestinal tract,rapidly and completely absorbed
